Results published in patent US20040110253A1, “Method for identifying MHC-presented peptide epitopes for T cells” (priority 2002, published 2004).

Experiments:
[1] = tested on: T cell 3DT-52.5; experiment: IL-2 production by T cell 3DT-52.5 in response to LKD8 cells plus synthetic peptide; type: cell-based, mouse; conditions: synthetic peptide 100 ug/ml, D^d expressing Tap deficient cell line, twenty four hours
Excerpt: FIG. 14B is a graph showing IL-2 produced by T cell […] in response to (1) P815 plus a bound unknown self-peptide and 2) LKD8, alone, or in the presence of the library derived peptide, TGPTRWCRL (SEQ ID NO:50), or a peptide derived from the spin protein, AGATRWCRL (SEQ ID NO:51).
DNA from a number of these clones was sequenced through the region encoding the peptide to determine the peptide sequence. Only one sequence was found, a 9mer, TGPTRWCRL (represented by SEQ ID NO:50; the underlined amino acids are in the positions varied in the library). […] A search of the mouse genome for proteins that contained peptides similar to the library peptide yielded a very similar sequence (AGATRWCRL; SEQ ID NO:51) intheprotein, spin(GenBank Accession No. BC011467). The library peptide and the spin peptide were synthesized and tested with a D^d expressing, Tap deficient, cell line for recognition by the original T cell (FIG. 14B). […] In the case of LKD8 the cell line was tested alone or in the presence of 100 ug/ml of the library derived peptide, TGPTRWCRL (SEQ ID NO:50), or a peptide derived from the spin protein, AGATRWCRL (SEQ ID NO:51). After twenty four hours the culture supernatants were assayed for IL-2. Without an added peptide, the D^d on this cell line was not recognized because the Tap deficiency prevents loading of endogenous peptides.

[2] = molecular target: T1, IA^b (Mus musculus, UniProt P14434+P14483); conditions: Rees et al., 1999; cited from earlier work
T1 sequence (P14434 24-256): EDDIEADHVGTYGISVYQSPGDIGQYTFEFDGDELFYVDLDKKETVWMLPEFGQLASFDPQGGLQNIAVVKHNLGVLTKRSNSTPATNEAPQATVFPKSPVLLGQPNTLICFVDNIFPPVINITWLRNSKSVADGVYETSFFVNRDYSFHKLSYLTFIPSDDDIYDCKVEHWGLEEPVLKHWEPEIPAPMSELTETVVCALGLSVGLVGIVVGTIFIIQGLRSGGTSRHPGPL
T1 sequence (P14483 28-265): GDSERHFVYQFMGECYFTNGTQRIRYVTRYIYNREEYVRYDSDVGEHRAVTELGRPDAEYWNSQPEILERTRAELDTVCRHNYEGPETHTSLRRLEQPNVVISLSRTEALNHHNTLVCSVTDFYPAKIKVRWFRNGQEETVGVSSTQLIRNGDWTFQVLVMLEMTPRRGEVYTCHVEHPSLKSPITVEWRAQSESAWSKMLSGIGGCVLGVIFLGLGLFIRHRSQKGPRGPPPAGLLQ

[3] = tested on: B3K-06 hybridoma; experiment: IL-2 production by B3K-06 T cell hybridoma in response to IA^b-peptide presenting APCs; type: cell-based, mouse
Excerpt: The hybridoma, B3K-06 was produced from wild-type C57BL/6 mice immunized conventionally with the peptide (Rees et al., 1999, supra). […] Also, as is commonly seen with conventional T cells, the interaction of the αβ TcR of B3K-06 with IA^b-p3K is very sensitive to changes in any of the peptide amino acids exposed on the surface of the IA^b-p3K complex. Mutation of positions Q2, K3, K5, N7 or K8 to alanine virtually eliminates recognition of p3K by B3K-06 (Liu et al., 2002, supra and additional data not shown).
(§1) At the time of the final enrichment, single infected cells binding each of αβTCRs were sorted into individual wells of 96 well culture plates containing fresh SF9 cells in order to prepare clonal viral stocks. These stocks were used to infect fresh SF9 cells which were reanalyzed for binding to the appropriate αβTCR as described above. […] The majority of PCR fragments yielded a single unambiguous peptide sequence. These viruses were used to infect SF9 cells that expressed mouse ICAM and B7.1. The infected cells were used as APCs for either the B3K-06 or YAe-62 hybridoma with IL-2 production being a measure of IA^b-peptide recognition. Viruses expressing IA^b-peptide combinations that neither bound to the αβTCR nor stimulated the T cell hybridomas were used as negative controls and virus producing IA^b-p3K was used as the positive control. Results with a few representative virus clones are shown in FIG. 10A and 10B, and a summary of all of the results are shown in Table 1.

[4] = tested on: B3K-06 TCR; experiment: Binding of fluorescent soluble B3K-06 αβTCR to SF9 cells displaying IA^b-peptide (flow cytometry); set-up: species or system mouse
Description: (§2) Next fluorescent, soluble αβTCR reagents were prepared for use in flow cytometry to detect insect cells displaying the appropriate MHCII/peptide combination. Fluorescent multivalent versions of the soluble αβTCR's of B3K-06 and YAe-62 bound to insect cells displaying the IA^b-p3K, but not a control MHCII-peptide combination (data not shown).
(§3) Insect cells displaying IA^b-p3K bound the αβTCR reagents very heterogeneously, probably due to heterogeneous expression of IA^b-p3K due to variations in the multiplicity of infection and the lack of synchrony in viral infection and expression. […] In this case, there was a direct correlation between the amount of surface IA^b-p3K expressed by an individual insect cell and the amount of αβTCR bound with cells bearing a particular level of IA^b-p3K binding the αβTCRs uniformly (data not shown). Therefore, comparing the two types of staining gave a useful tool to evaluate the relation between peptide sequence and the strength of αβTCR binding (see below).
(§4) A large number of SF9 insect cells were infected at an MOI of about one with baculovirus carrying the IA^b peptide library. After 3-4 days the cells were analyzed with fluorescent B3K-06 or YAe-62 soluble αβTCR, as described above. Fluorescent cells were sorted and cultured with fresh uninfected SF9 cells to create new infected cells for analysis and an enriched viral stock. This process was repeated 3 to 4 times. In each case, when no clear fluorescent population was apparent, the brightest 1% of the infected cells was sorted. In later rounds, the majority of the cells in a clearly distinguishable fluorescent population were sorted. Infected cells binding the B3K-06 αβTCR were apparent only after two rounds of enrichment but eventually yielded a population with uniform binding (data not shown). Infected cells that bound the YAe-62 αβTCR were detectable even with the initial library of viruses and enriched rapidly to yield a population with more heterogeneous levels of binding to the receptor (data not shown).
as §1

[5] = tested on: YAe-62 TCR; experiment: Binding of fluorescent soluble YAe-62 αβTCR to SF9 cells displaying IA^b-peptide (flow cytometry); set-up: species or system mouse
Description: as §2, §3, §4, §1

[6] = tested on: YAe-62 hybridoma; experiment: IL-2 production by YAe-62 T cell hybridoma in response to IA^b-peptide presenting APCs; type: cell-based, mouse
Excerpt: The mouse T cell hybridoma, referred to as YAe-62, was chosen as a representative of broadly reactive T cells present in mice carrying transgenes and gene knockouts that lead to expression of MHC Class II that are almost completely occupied by a single peptide (Ignatowicz et al., 1996, Cell 84:521-529). The T cell was produced by immunization with p3K bound to IA^b in mice that express IA^b covalently linked to Eα, a dominant IA^b binding peptide derived from the MHC Class II IEα chain. YAe-62 responds to IA^b-p3K, but not to APCs lacking MHC Class II or to the IA^b-pEα APCs from the mouse from which it was derived. YAe-62 is also reactive against many cell types bearing IA^b in the absence of p3K. It also responds to APCs from a variety of mice carrying other alleles of IA. The inventors have postulated that this T cell responds mainly to the evolutionarily conserved regions of the IA molecule with less dependence on the peptide than seen with conventional T cells (Marrack et al., 2001, J. Immunol. 167:617-621). […] From the X-ray crystal structure of IA^b (Liu et al., 2002, supra) enough was known about how peptides bind to this MHC molecule to design a strategy in which the major MHC anchor amino acids of the peptide could be held constant and only five surface exposed amino acids need be varied in the library (FIG. 8).
as §1

[7] = tested on: T cell 3DT-52.5; experiment: IL-2 production by T cell 3DT-52.5 in response to infected SF9 cells expressing D^d tethered to peptide; type: cell-based, mouse; conditions: infected insect cells expressing D^d bearing the peptide as APCs
Excerpt: FIG. 14A is a graph showing IL-2 produced by T cell 3DT-52.5 in response to ICAM+/B7+ SF9 cells infected with baculovirus expressing D^d tethered to either pHIV or the αβTCR identified peptide, TGPTRWCRL (SEQ ID NO:50).
To screen the library, soluble a αβTCR were produced from a mouse T cell specific for D^d plus an unknown self-peptide (Endres et al., 1983, J Immunol 131:1656-1662). A multimeric, fluorescent version of the αβTCR was produced as described for MHCII specific αβTCRs. SF9 cells, infected with the library at a multiplicity of infection (MOI) of <1, were analyzed for binding of the fluorescent αβTCR (data not shown). Although no clearly fluorescent population of cells was seen, of those with good surface D^d expression, the 1% of the cells with the brightest fluorescence were sorted and cultured with fresh insect cells to expand the virus. This type of enrichment was repeated six times, producing a clear population of infected cells was detected that bound the αβTCR (data not shown). The infected cells were cloned with fresh insect cells to prepare clonal viral stocks. These stocks were re-tested for encoding a D^d-peptide combination that bound the αβTCR.
DNA from a number of these clones was sequenced through the region encoding the peptide to determine the peptide sequence. […]

[8] = molecular target: IA^b-p3K displayed on baculovirus-infected SF9 insect cells (mouse; baculovirus); experiment: flow cytometry, fluorescent multivalent soluble TCR on infected SF9 cells
[9] = molecular target: IA^b-pEα displayed on baculovirus-infected SF9 insect cells (mouse; baculovirus); experiment: as above
[10] = molecular target: IA^b-… displayed on baculovirus-infected SF9 insect cells (mouse; baculovirus); experiment: as above
[11] = molecular target: IA^b-… (SEQ ID NO:26) displayed on baculovirus-infected SF9 insect cells (mouse; baculovirus); experiment: as above
[12] = molecular target: IA^b-… (SEQ ID NO:25) displayed on baculovirus-infected SF9 insect cells (mouse; baculovirus); experiment: as above
[13] = IA^b-peptide displayed on baculovirus-infected SF9 cells, fluorescent soluble αβTCR
[14] = insect cells displaying IA^b-peptide

With “AGATRWCRL (listed as Mus musculus) [peptide derived from the spin protein]” the “restoration of the ability of LKD8 cells to stimulate the T cells (IL-2)” value [1] was “restored the ability of the cells to stimulate the T cells”.

In the case of “F E A Q K A K A N K A V (FEAQKAKANKAV; synthetic peptide motif) [p3K, positive control]”, the “binding of peptide to IA^b” value [2] is given as “binds well”, the “IL-2 Production (units/ml)” value ([3]; B3K-06 hybridoma, infected SF9 cells expressing mouse ICAM and B7.1 as APCs) is given as 3500 units/ml and the “response of B3K-06 to IA^b-expressing APCs plus peptide” value ([3]; IA^b-expressing APCs, data not shown) is given as “responds to IA^b-expressing APCs in the presence, but not in the absence of the peptide”. The “B3K-06 TCR Binding (% of p3K)” value [4, 13] was 100.0 % of p3K, the “binding of B3K-06 αβTCR to IA^b-peptide complex (in words)” value [4, 14] was “bound” and the “YAe-62 TCR Binding (% of p3K)” value [5, 13] was 100.0 % of p3K. The “binding of YAe-62 αβTCR to IA^b-peptide complex (in words)” value [5, 14] was “bound”, the “response of YAe-62 to IA^b-peptide APCs” value ([6]; APCs bearing IA^b-peptide) was “responds” and the “IL-2 Production (units/ml)” value ([6]; YAe-62 hybridoma, infected SF9 cells expressing mouse ICAM and B7.1 as APCs) was 205 units/ml.

For “TGPTRWCRL (synthetic peptide motif) [9mer D^d library derived peptide identified with the αβTCR of 3DT-52.5]”, the “stimulation of IL-2 production from the original T cell donor of the αβTCR” value [7] was “specifically stimulated IL-2 production” and the “restoration of the ability of LKD8 cells to stimulate the T cells (IL-2)” value [1] was “restored the ability of the cells to stimulate the T cells”.

In the case of “soluble αβTCR of B3K-06, fluorescent multivalent version”, the TCR Binding (% of p3K) [8] is reported as 100 % of p3K, the TCR Binding (% of p3K) [9] is reported as 0.4 % of p3K and the TCR Binding (% of p3K) [10] is reported as 66.8 % of p3K.

With “soluble αβTCR of YAe-62, fluorescent multivalent version” the TCR Binding (% of p3K) [8] was 100 % of p3K, the TCR Binding (% of p3K) [11] was 54.9 % of p3K and the TCR Binding (% of p3K) [9] was 0.3 % of p3K. For the same substance, the TCR Binding (% of p3K) [12] was 58.3 % of p3K.
